From patent US12103946B2, “Steroid compounds as Treg modulators and uses thereof” (New York University, priority 2018, dated 2024)
Where two headings read alike, the source gives them in different places. Values belong to the compound of their own block, whether it stands above or below them.

Key:
[1] = system: fusion protein of RORγt and Gal4-DBD; assay: RORγt luciferase reporter assay in HEK293 cells; assay type: cell-based, human; conditions: ML209 2 μM, bile acids 10 μM
Experimental: Data are shown as the mean±standard deviation by unpaired t-test with 2-tailed p-value.
(§1) We next examined if 3-oxoLCA physically interacts with the RORγt protein in vitro. A microscale thermophoresis (MST) assay was performed with recombinant human RORγt ligand-binding domain (LBD). […] Next, we examined if 3-oxoLCA modulates the transcriptional activity of RORγt. We assayed the effect of the bile acids on firefly luciferase expression directed by a fusion protein of RORγt and Gal4-DBD (DNA-binding domain) in human embryonic kidney (HEK) 293 cells^14.

CD4+ T cells = conditions: for cell viability: 3-day culture
From the text: Representative FACS plots of CD4^+ T cells cultured for 3 days and stained intracellularly for FoxP3 (e). Quantification of FoxP3^+ and viable T cells after 3-day culture (f) (n=2/group). n, number of biologically independent samples. Data are representative of two independent experiments (b, d). Data in (c) are shown as the mean±standard deviation.
Naïve CD4^+ T cells were isolated from FoxP3-IRES-GFP mice. d, Flow cytometry of CD4^+ T cells stained intracellularly for FoxP3. Naïve CD4^+ T cells isolated from WT, CNS1, CNS2 or CNS3 knockout mice (n=3/group) were cultured with anti-CD3/28 and IL-2, LCA (20 μM), TGF-β (0.05 ng/ml) and additional retinoic acid (RA; 1 ng/ml). e and f, Flow cytometry (e) and its quantification (f) of CD4^+ T cells stained intracellularly for FoxP3. […] Data are representative of two independent experiments (c, d). Data are shown as the mean±standard deviation by unpaired t-test with 2-tailed p-value.
(§2) Flow Cytometry. Cells harvested from in vitro culture or in vivo mice experiments were stimulated with 50 ng/mL PMA (Phorbol 12-myristate 13-acetate, Sigma) and 1 μM ionomycin (Sigma) in the presence of GolgiPlug (BD) for 4 h to determine cytokine expression. After stimulation, cells were stained with cell surface marker antibodies and LIVE/DEAD Fixable dye, Aqua, to exclude dead cells, fixed and permeabilized with a FoxP3/Transcription factor staining kit (eBioscience), followed by staining with cytokine- and/or transcription factor-specific antibodies. All flow cytometry analyses were performed on an LSR II flow cytometer (BD) and data were analyzed with FlowJo software (TreeStar).

[2] = cited from earlier work
physchem = conditions: pH 8
Experimental: (§5) Measurement of lipophilicity. Partitioning Method: 2 μL of 10 mM stock solutions of each target compound was added to a 1 mL each of 50 mM ammonium bicarbonate (pH=8), and 1 mL of n-octanol in an Eppendorf tube. The resulting two-phase mixture was vortexed and then shaken for 18 h at 20° C. The two phases were then carefully separated into the aqueous sample (bottom layer), and organic sample (top-layer) and placed separately in autosampler vials and analyzed by LC-MS/MS. LC-MS Method: a Thermo q-Exactive Plus LC-MS equipped with an Ultimate 3000 HPLC was operated in negative ion mode after optimized to detect the [M− H]^− of the bile acids. […] A Dikma Inspire C8 column (3 μm particle size, 100 mm length, 4.6 mm ID) was used for analysis. Each injection was 5 μL, and a constant flow rate of 0.400 L/min was used. The gradient started at 0% B and was held constant for 2 minutes. Then the mobile phase composition was linearly changed to 100% B over 8 minutes and held at 100% for the following 5 minutes. The mobile phase composition was changed to 0% B over the following 0.1 minutes and the system was allowed to equilibrate to starting conditions over 1.9 minutes. Standards of all targets were used to establish retention times. Better than 2 ppm mass accuracy was obtained on all measurements. The LC-MS analysis was done in triplicate, while the partitioning was done once for each target's [M− H]^− ion. Calculation of log D: the total response of target in octanol was divided by the total response in the aqueous phase to get a partitioning coefficient. Then, log base 10 was taken and reported.

[3] = system: naïve CD4+ T cells (Th17 differentiation, IL-17a); assay: In vitro Th17 differentiation, IL-17a staining by flow cytometry; assay type: cell-based, mouse; conditions: for Th17 cell differentiation (IL-17a): bile acids 20 μM, 3 days, IL-6 and TGF-β
From the text: (§3) Our screen included both primary bile acids, synthesized by the host, and secondary bile acids, produced by bacterial modification of primary bile acids (FIG. 5). Naïve CD4^+ T cells were isolated from wild-type C57BL/6J (B6) mice and cultured with bile acids under Th17 differentiation conditions and, as a counter-screen, Treg differentiation conditions (FIG. 6).
(§4) In Vitro T Cell Culture. Naïve CD4^+ (CD62L^+ CD44^− CD25^− CD4^+) T cells were isolated from the spleens and the lymph nodes of mice of designated genotypes with FACS sorting. For certain experiments, naïve CD4^+ T cells were enriched using naïve CD4^+ T cell isolation kits (Miltenyi). Naïve CD4^+ T cells (40,000 cells) were cultured in a 96-well plate pre-coated with hamster IgG (MP Biomedicals) in T cell medium (RPMI, 10% fetal bovine serum, 25 mM glutamine, 55 μM 2-mercaptoethanol, 100 U/mL penicillin, […] streptomycin) supplemented with 0.25 μg/mL anti-CD3 (clone 145-2C11) and 1 μg/mL anti-CD28 (clone 37.51). For Th0 culture, T cells were cultured with the addition of 100 U/mL of IL-2 (PEPROTECH). For Th1 cell differentiation, T cells were cultured with the addition of 100 U/mL of IL-2, 10 μg/mL of anti-IL-4 (clone 11B11) and 10 ng/mL of IL-12 (PEPROTECH). For Th2 cell differentiation, T cells were cultured with the addition of 10 μg/mL of anti-IFNγ (clone XMG1.2) and 10 ng/mL of IL-4 (R&D Systems). For Th17 cell differentiation, T cells were cultured with the addition of 10 ng/mL of IL-6 (eBioscience) and 0.5 ng/mL of TGF-β (PEPROTECH). For Treg culture, T cells were cultured with the addition of 100 U/mL of IL-2 and various concentrations of TGF-β. […] Bile acids, retinoic acid (Sigma) or mitoQ (Focus Biomolecules), or mitoPQ (Sigma) were added either at 0 or 16 h time points. Compounds with low water solubility were sonicated before adding to the culture. Cells were harvested and assayed by flow cytometry on day 3. For ROS and mitochondrial membrane potential detection, cells cultured for 2 days were incubated with 5 μM of mitoSOX (ThermoFisher), 10 μM of DCFDA (Sigma) or 2 μM of JC-1 (ThermoFisher) for 30 min and assayed with flow cytometry.
as §2

[4] = molecular target: T1, recombinant human RORγt ligand-binding domain (LBD) (Homo sapiens, UniProt P51449); assay: Microscale thermophoresis assay; conditions: MST
T1 sequence (P51449 269-508 limits assumed): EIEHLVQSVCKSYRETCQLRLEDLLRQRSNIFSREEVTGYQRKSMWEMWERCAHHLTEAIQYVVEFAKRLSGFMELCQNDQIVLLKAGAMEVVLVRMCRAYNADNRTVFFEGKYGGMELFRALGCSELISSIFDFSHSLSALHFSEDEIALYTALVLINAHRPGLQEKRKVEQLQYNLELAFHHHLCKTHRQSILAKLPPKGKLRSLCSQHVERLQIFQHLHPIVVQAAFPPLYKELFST
Experimental: as §1
Microscale Thermophoresis Assay. The binding affinity of the compounds with RORγ ligand-binding domain (LBD) was analyzed by microscale thermophoresis (MST). Purified RORγ-LBD was labeled with the Monolith NT™ Protein Labeling Kit RED (NanoTemper Technologies). Serially-diluted compounds, with concentrations of 1 mM to 20 nM, were mixed with 55 nM labeled RORγ-LBD at room temperature and loaded into Monolith™ standard-treated capillaries. Binding was measured by monitoring the thermophoresis with 20% LED power and ‘Medium’ MST power on a Monolith NT.115 instrument (Nano Temper Technologies) with the following time setting: 5s Fluo, Before; 20s MST On; and 5s Fluo, After. Kd values were fitted using the NT Analysis software (Nano Temper Technologies).

[5] = system: naïve CD4+ T cells (Treg differentiation, FoxP3); assay: In vitro Treg differentiation, FoxP3 staining by flow cytometry; assay type: cell-based, mouse; conditions: for FoxP3 expression / Treg differentiation in cells lacking CNS3: CNS3 knockout cells
From the text: To determine if bile acids influence T cell functions, the present inventors performed a small-scale screening assay with a small molecule library comprising secondary bile acids with in vitro Treg differentiation as a read-out. Naïve CD4^+ T lymphocytes were sorted from wild-type B6 mice and cultured in the presence of a TCR stimulus, interleukin 2 (IL-2), and different amounts of TGFβ (optimized for Treg differentiation). Treg differentiation was quantified at the single cell level by staining with an antibody specific for FoxP3, followed by flow cytometry analysis. Retinoic acid, a known enhancer of Treg differentiation, was used as a positive control.
as §3, §4, §2

[6] = Measurement of lipophilicity (octanol/ammonium bicarbonate partitioning, LC-MS); conditions: n-octanol / 50 mM ammonium bicarbonate, pH 8
Experimental: as §5

T cells = assay: ROS, mitochondrial mass and membrane potential (mitoSOX, DCFDA, MitoTracker, JC-1); assay type: cell-based, mouse; conditions: 48 h
Experimental: Chromatin obtained from DMSO- and isoalloLCA-treated WT cells was immunoprecipitated with IgG, anti-H3K27Ac, anti-P300, or anti-H3K4me1 antibodies, followed by real-time PCR analysis (n=3/group). Primers targeting FoxP3 promoter (Pro), CNS1, CNS2 and CNS3 region and hsp90 promoter were used for qPCR quantification. Relative enrichment was calculated as fold change relative to the ChIP signal at the FoxP3 promoter of the DMSO-treated control. d and e, Flow cytometry and quantification of CD4^+ T cells stained intracellularly for FoxP3. […] Their mitochondrial and cytoplasmic ROS were measured by mitoSOX (h) and 2′,7′-dichlorofluorescein diacetate (DCFDA) (i), respectively. Total mitochondria mass was measured by MitoTracker (j) and the mitochondrial membrane potential measured by JC-1 dye (k). MFIs of different treatments were normalized as fold changes to those of DMSO control (n=3/group).
In Vitro T Cell Culture. Naïve CD4^+ (CD62L^+ CD44^− CD25^− CD4^+) T cells were isolated from the spleens and the lymph nodes of mice of designated genotypes with FACS sorting. For certain experiments, naïve CD4^+ T cells were enriched using naïve CD4^+ T cell isolation kits (Miltenyi). […]

Compound: COc1cc(O)c(C(CC(=O)N2C[C@H](C)C[C@H](C)C2)c2ccc3c(c2)OCO3)c(OC)c1 (stereo partly shown) [ML209, reference compound]
RORγt reporter activity [1]: completely lost RORγt activity

Compound: C[C@H](CCC(=O)NCC(=O)O)[C@H]1CC[C@H]2[C@@H]3CC[C@H]4C[C@@H](O)CC[C@]4(C)[C@H]3CC[C@]12C [Glyco-isoalloLCA]
cytotoxicity compared to isoalloLCA (CD4+ T cells; 10 or 20 μM): enhanced cytotoxicity at 10 or 20 μM compared to isoalloLCA

Compound: C[C@H](CCC(=O)O)[C@H]1CC[C@H]2[C@@H]3[C@@H](O)C[C@@H]4C[C@H](O)CC[C@]4(C)[C@H]3CC[C@]12C [UDCA, Ursodeoxycholic acid]
Log D (pH = 8.0), previously reported [2]: 2.2

Log D (pH = 8.0): 3.5
Compound: C[C@H](CCC(=O)O)[C@H]1CC[C@H]2[C@@H]3CC[C@H]4C[C@H](O)CC[C@]4(C)[C@H]3CC[C@]12C [alloLCA, Allolithocholic acid]

logD at 18 h (physchem): 3.6
Compound: C[C@H](CCC(=O)O)[C@H]1CC[C@H]2[C@@H]3CC[C@@H]4C[C@H](O)CC[C@]4(C)[C@H]3CC[C@]12C [LCA, Lithocholic acid]

Kd relative to 3-oxoLCA [4]: ~20 times
Compound: C[C@H](CCC(=O)O)[C@H]1CC[C@H]2[C@@H]3CC[C@@H]4CC(=O)CC[C@]4(C)[C@H]3C[C@H](O)[C@]12C [3-oxoDCA, 3-oxodeoxycholic acid, reference compound]
Th17 cell differentiation (IL-17a) [3]: Neither 3-oxoCA nor 3-oxoDCA inhibited Th17 cell differentiation as robustly as 3-oxoLCA

Compound: C[C@H](CCC(=O)O)[C@H]1CC[C@H]2[C@@H]3CC[C@H]4C[C@@H](O)CC[C@]4(C)[C@H]3CC[C@]12C [isoalloLCA, Isoallolithocholic acid]
reduction of Th17 cell differentiation ([3]; 20 μM): ~50%
cell viability (CD4+ T cells): do not significantly affect cell proliferation, cell viability
cell viability (CD4+ T cells; listed as IsoalloLCA): did not impair cell viability
logD at 18 h (physchem): 2.2

logD at 18 h (physchem): 3.5
Compound: C[C@H](CCC(=O)O)[C@H]1CC[C@H]2[C@@H]3CC[C@@H]4C[C@@H](O)CC[C@]4(C)[C@H]3CC[C@]12C [isoLCA, Isolithocholic acid]

Compound: C[C@H](CCC(=O)O)[C@H]1CC[C@H]2[C@@H]3[C@H](O)C[C@@H]4C[C@H](O)CC[C@]4(C)[C@H]3CC[C@]12C [CDCA, Chenodeoxycholic acid]
Log D (pH = 8.0), previously reported [2]: 2.2

Compound: TGF-β: cytokine used for Treg culture
FoxP3 expression / Treg differentiation in cells lacking CNS3 [5]: boosted Treg differentiation in CNS3-deficient cells, albeit with reduced efficiency

logD at 18 h [6]: 2.5
Compound: CC[C@H]1[C@@H](O)[C@@H]2[C@H](CC[C@]3(C)[C@@H]([C@H](C)CCC(=O)O)CC[C@@H]23)[C@@]2(C)CC[C@@H](O)C[C@@H]12 [OCA, Obeticholic acid]

Compound: CCNC(=O)C[C@@H]1N=C(c2ccc(Cl)cc2)c2cc(OC)ccc2-n2c(C)nnc21 [iBET, reference compound]
effect on isoalloLCA-dependent enhancement of FoxP3 ([5]; isoalloLCA 20 μM, TGF-β 0.05 ng/mL): prevented isoalloLCA-dependent enhancement of FoxP3 in a dose-dependent manner

Compound: C[n+]1ccc(-c2cc[n+](CCCCCCCCCC[P+](c3ccccc3)(c3ccccc3)c3ccccc3)cc2)cc1.[I-].[I-].[I-] [mitoPQ, mitoParaquat, reference compound]
FoxP3 expression / Treg differentiation in cells lacking CNS3 [5]: required the CNS3 enhancer and TGF-β
Treg differentiation (FoxP3 expression) ([5]; bile acids 20 μM, 3 days, anti-CD3/28, IL-2): sufficient to enhance mitoROS production and Treg differentiation in a dose-dependent manner
mitochondrial ROS (mitoROS) production (T cells): sufficient to enhance mitoROS production

logD at 18 h [6]: 2.7
Compound: C[C@H](CCC(=O)O)[C@H]1CC[C@H]2[C@@H]3CC[C@@H]4C[C@H](O)CC[C@]4(C)[C@H]3C[C@H](O)[C@]12C [DCA, Deoxycholic acid]

Kd relative to 3-oxoLCA [4]: ~20 times
Compound: C[C@H](CCC(=O)O)[C@H]1CC[C@H]2[C@@H]3[C@H](O)C[C@@H]4CC(=O)CC[C@]4(C)[C@H]3C[C@H](O)[C@]12C [3-oxoCA, 3-oxocholic acid, reference compound]
Th17 cell differentiation (IL-17a) [3]: Neither 3-oxoCA nor 3-oxoDCA inhibited Th17 cell differentiation as robustly as 3-oxoLCA
